Measurements taken from US11317630B2, “Method of controlling weeds” (Sumitomo Chemical Company, Limited, priority 2018, dated 2022).

Assays:
Type in all cases: in vivo
[1] = tested on: Amaranthus palmeri having an Arg128Gly, Arg128Met, Gly210 deletion or Gly399Ala mutation in PPO2, waterhemp having a Gly210 deletion mutation in PPO2, ragweeds …; experiment: Herbicidal effect, soil application with drift-reducing nozzle 7 days before sowing soybean (Example 1); conditions: soil surface, TTI11004 nozzle, 10, 20, 40, 80, or 160 g/ha, 200 L/ha, greenhouse, soybean sown after 7 days, examined after 14 days
Text: Amaranthus palmeri having an Arg128Gly mutation in PPO2, Amaranthus palmeri having an Arg128Met mutation in PPO2, Amaranthus palmeri having a Gly210 deletion mutation in PPO2, Amaranthus palmeri having a Gly399Ala mutation in PPO2, waterhemp having a Gly210 deletion mutation in PPO2, and ragweeds having Arg128Leu in PPO2 are sown in a plastic pot. On the same day, a compound X is applied to the surface of soil by using a drift-reducing nozzle (TTI11004 manufactured by Teejet Company). The amount of the compound X to be applied is 10, 20, 40, 80, or 160 g/ha and the amount of spray dilution is 200 L/ha. Then, these weeds are cultivated in a greenhouse and Roundup Ready 2 Xtend soybean seeds are sown after 7 days, to examine the effects on the weeds and phytotoxic effects on the soybean after 14 days.

[2] = tested on: Amaranthus palmeri having an Arg128Gly, Arg128Met, Gly210 deletion or Gly399Ala mutation in PPO2, waterhemp having a Gly210 deletion mutation in PPO2, ragweeds …; experiment: Herbicidal effect, soil application with drift-reducing nozzle on the day of sowing weeds and soybean (Example 2); conditions: soil surface on day of sowing, TTI11004 nozzle, 10, 20, 40, 80, or 160 g/ha, 200 L/ha, greenhouse, examined after 21 days
Text: Amaranthus palmeri having an Arg128Gly mutation in PPO2, Amaranthus palmeri having an Arg128Met mutation in PPO2, Amaranthus palmeri having a Gly210 deletion mutation in PPO2, Amaranthus palmeri having a Gly399Ala mutation in PPO2, waterhemp having a Gly210 deletion mutation in PPO2, ragweeds having Arg128Leu in PPO02, and a Roundup Ready 2 Xtend soybean are sown in a plastic pot. On the same day, a compound X is applied to the surface of soil by using a drift-reducing nozzle (TTI11004 manufactured by Teejet Company). The amount of the compound X to be applied is 10, 20, 40, 80, or 160 g/ha and the amount of spray dilution is 200 L/ha. Then, the weeds and soybean are cultivated in a greenhouse to examine the effects on the weeds and phytotoxic effects on the soybean after 21 days.

[3] = tested on: Amaranthus palmeri having an Arg128Gly, Arg128Met, Gly210 deletion or Gly399Ala mutation in PPO2, waterhemp having a Gly210 deletion mutation in PPO2, ragweeds …; experiment: Herbicidal effect, foliar treatment with drift-reducing nozzle 21 days after sowing (Example 3); conditions: foliar treatment 21 days after sowing, TTI11004 nozzle, 10, 20, 40, 80, or 160 g/ha, 200 L/ha, greenhouse, examined 14 days after treatment
Text: Amaranthus palmeri having an Arg128Gly mutation in PPO2, Amaranthus palmeri having an Arg128Met mutation in PPO2, Amaranthus palmeri having a Gly210 deletion mutation in PPO2, Amaranthus palmeri having a Gly399Ala mutation in PPO2, waterhemp having a Gly210 deletion mutation in PPO2, ragweeds having Arg128Leu in PPO02, and a Roundup Ready 2 Xtend soybean are sown in a plastic pot. Then, the weeds and soybean are cultivated in a greenhouse and a compound X is applied to perform foliar treatment by using a drift-reducing nozzle (TTI11004 manufactured by Teejet Company) 21 days after sowing. The amount of the compound X to be applied is 10, 20, 40, 80, or 160 g/ha and the amount of spray dilution is 200 L/ha. Then, the weeds and soybean are further cultivated in a greenhouse to examine the effects on the weeds and phytotoxic effects on the soybean 14 days after treatment.

Measured: effects on the weeds

CCOC(=O)COc1ncccc1Oc1cc(-n2c(=O)cc(C(F)(F)F)n(C)c2=O)c(F)cc1Cl [compound X, Ethyl [3-[2-chloro-4-fluoro-5-(l-methyl-6-trifluoromethyl-2,4-dioxo-1,2,3,4-tetrahydropyrimidine-3-yl)phenoxy]-2-pyridyloxy]acetate]
valuable effect: all assays above
